{"source": "patent EP0341104B1", "about": "“Substituted flavonoid compounds, their salts, their manufacture and medicines containing these materials” (MERCK PATENT GmbH, priority 1988, dated 1989)", "key": {"[1]": {"system": "tumored cells of the type YAC-1", "test": "stimulation of the activity of killer cells (splenic cells of treated mice, chromium 51 release)", "format": "in vivo, Mice BALB/C", "settings": "200 mg/kg intravenously; spleens taken 24 hours after administration; 4 hours incubation with 1 x 10⁴ YAC-1 cells; HBSS controls no measurable activity", "description": "The determination of the activity of killer cells was made in accordance with the following. Mice BALB/C were treated intraveneously, either with 0.25 ml of HBSS or with 200 mg/kg of a compound of formula (IV). Twenty four hours after administration of the compound, the spleens of the animals were reduced to a state of suspension. Debris and cellular wastes are eliminated by sedimentation and the red corpuscles are lysed with distilled water. The cellular suspension obtained was then filtered over sterile gauze and washed twice with HBSS.\nDifferent quantities of splenic cells are incubated with 1 x 10⁴ tumored cells of the type YAC-1 stained with chromium 51. The length of incubation was 4 hours at 37°C in a RPMI 1640-type medium supplemented with 5% of FBS, pencillin (100 U/ml) streptomycin (100 µg/ml), L-glutamine (20 mM), sodium pyruvate (1 mM), and nonessential amino acids (0.1 mM) in a buffered medium. The floating bodies are removed and a count effectuated.\nThe results are expressed in lytic units (UL₁₀): where UL₁₀ is the quantity necessary to effectuate lysis of 1 x 10⁴ target cells. For example, it was discovered that the compound of formula 19, provided 80 UL. The compound of formula 25 provided 60 UL. The compound of formula 42 provided 110 UL."}, "interferon (IFN)": {"system": "interferon (IFN)", "format": "in vivo, Mice BALB/C", "settings": "200 mg/kg intravenously; unit = quantity of IFN in 1 ml of sample reducing viral lysis by 50%; HBSS controls no induction"}, "[2]": {"system": "ristocetin-induced platelet agglutination", "settings": "Rubin et al, Lancet 1987; cited from earlier work"}, "[3]": {"system": "natural killer cell activity", "settings": "Wiltrout et al, J. Immunol. 1988; cited from earlier work"}, "murine renal cancer": {"system": "murine renal cancer", "settings": "Wiltrout et al, J. Immunol. 1988; cited from earlier work"}, "in vivo": {"test": "in vivo", "settings": "mouse, 400 mg/kg"}, "[4]": {"settings": "after 20 days"}}}
{"smiles": "O=C(O)Cc1cccc2c(=O)cc(-c3ccc(-c4ccccc4)cc3)oc12", "note": "[formula 19, PHENYL-4-PHENYL)2-OXO-4-4H-(1)-BENZOPYRAN-8-ACETIC ACID]", "values": [{"measurement": "activity of killer cells in lytic units (UL₁₀)", "setting": "[1]", "value": 80, "unit": "UL"}, {"measurement": "Interferon activity", "setting": "interferon (IFN)", "value": "1000 units of IFN"}]}
{"smiles": "O=C(O)c1cccc2ccc3c(=O)cc(-c4ccccc4)oc3c12", "note": "[formula 67, OXO-4-PHENYL-2-4H-NAPHTO[1,2-b]PYRANONE-4]", "values": [{"measurement": "Interferon activity", "setting": "interferon (IFN)", "value": "1000 units of IFN"}]}
{"smiles": "O=C(O)Cc1cccc2c(=O)cc(-c3ccccc3)oc12", "note": "[flavone-8-acetic acid]", "values": [{"measurement": "ristocetin-induced platelet agglutination", "setting": "[2]", "value": "inhibits"}, {"measurement": "systemic natural killer cell activity", "setting": "[3]", "value": "augments"}, {"measurement": "synergy with interleukin-2 (IL-2) for treatment of murine renal cancer", "setting": "murine renal cancer", "value": "synergizes with interleukin-2 (IL-2)"}, {"measurement": "mortality at 480 h", "setting": "in vivo", "value": 100, "unit": "%"}]}
{"smiles": "C=C(C(=O)O)c1cccc2c(=O)cc(-c3ccccc3)oc12", "note": "[formula 42, (PHENYL-2-OXO-4-4H-(1) BENZOPYRAN-8-YL)-2-ACRYLIC ACID]", "values": [{"measurement": "activity of killer cells in lytic units (UL₁₀)", "setting": "[1]", "value": 110, "unit": "UL"}]}
{"smiles": "O=C(O)Cc1cccc2c(=O)cc(-c3ccc([N+](=O)[O-])cc3)oc12", "note": "[formula 25, (NITRO-4-PHENYL)-2-OXO-4-4H-(1)-BENZOPYRAN-8-ACETIC ACID]", "values": [{"measurement": "activity of killer cells in lytic units (UL₁₀)", "setting": "[1]", "value": 60, "unit": "UL"}, {"measurement": "Interferon activity", "setting": "interferon (IFN)", "value": "1000 units of IFN"}]}
{"smiles": "Nc1nc(-c2cccc3c(=O)cc(-c4ccccc4)oc23)cs1", "note": "[formula 58, (AMINO-2-THIAZOL-4-YL)-8-PHENYL-2-4H-[1] BENZOPYRANONE-4]", "values": [{"measurement": "mortality rate", "setting": "[4]", "value": "no deaths"}]}
{"smiles": "O=C(O)Cc1ccc2c(=O)cc(-c3ccccc3)oc2c1", "note": "[formula 29, OXO-4-PHENYL-2-4H-(1) BENZOPYRAN-7-ACETIC ACID]", "values": [{"measurement": "mortality at 480 h", "setting": "in vivo", "value": 10, "unit": "%"}]}
